From ChEMBL document CHEMBL1156106 (J Med Chem, 2009) come the findings set out here.

The subject of data set [1] is Mus musculus. Kind of data set: Antidepressant activity in ip dosed mouse assessed as time to reach peak stimulation of locomotor activity. The data set is classed as functional.
Data set [2] has as its system Rattus norvegicus. Kind of data set: Effect on behavioural activity in rat assessed as cocaine-induced lever response at 25 mg/kg, ip pretreated with cocaine for 240 mins by drug-discrimination studies. Particulars: route intraperitoneal. The format is functional.
The test system of data set [3] is Mus musculus. Kind of data set: Antidepressant activity in ip dosed mouse assessed as stimulation of locomotor activity relative to cocaine. The format is functional.
Data set [4] deals with Mus musculus. Put plainly: Antidepressant activity in ip dosed mouse assessed as duration of locomotor activity. The data set is classed as functional.
Data set [5] deals with Rattus norvegicus. Kind of data set: Effect on behavioural activity in rat assessed as cocaine-induced lever response at 50 mg/kg, ip pretreated with cocaine for 240 mins by drug-discrimination studies. The format is functional. Particulars: route intraperitoneal.
For data set [6], the target named is T1, Sodium-dependent serotonin transporter (Homo sapiens, UniProt P31645). Kind of data set: Inhibition of [3H]serotonin reuptake at human SERT expressed in HEK293 cells. The data set is classed as cell-based.
T1 sequence (P31645 whole entry): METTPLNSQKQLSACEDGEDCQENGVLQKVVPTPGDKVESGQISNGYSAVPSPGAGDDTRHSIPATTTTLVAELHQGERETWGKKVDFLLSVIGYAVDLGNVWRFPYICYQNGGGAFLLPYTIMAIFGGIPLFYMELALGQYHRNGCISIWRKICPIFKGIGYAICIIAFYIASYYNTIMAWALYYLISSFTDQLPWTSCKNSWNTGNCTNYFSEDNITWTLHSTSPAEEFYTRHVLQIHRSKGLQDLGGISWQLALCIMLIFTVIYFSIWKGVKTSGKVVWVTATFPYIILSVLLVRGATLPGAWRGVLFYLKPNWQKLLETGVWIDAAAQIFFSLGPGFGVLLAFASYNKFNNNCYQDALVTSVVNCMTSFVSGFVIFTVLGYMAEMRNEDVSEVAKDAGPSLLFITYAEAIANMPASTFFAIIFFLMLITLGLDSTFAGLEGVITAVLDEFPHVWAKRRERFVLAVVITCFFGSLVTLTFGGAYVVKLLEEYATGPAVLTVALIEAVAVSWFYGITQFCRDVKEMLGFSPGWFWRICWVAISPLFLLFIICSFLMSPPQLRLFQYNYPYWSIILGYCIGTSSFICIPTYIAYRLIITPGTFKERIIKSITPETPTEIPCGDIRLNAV
Data set [7] deals with Mus musculus. Kind of data set: Antidepressant activity in ip dosed mouse assessed as stimulation of locomotor activity. The data set is classed as functional.
For data set [8], the system named is Rattus norvegicus. Put plainly: Effect on behavioural activity in rat assessed as cocaine-induced lever response at 50 mg/kg, ip pretreated with cocaine for 45 mins by drug-discrimination studies. Particulars: route intraperitoneal. The format is functional.
The target of data set [9] is T1, Sodium-dependent serotonin transporter. Kind of data set: biochemical. The data set is classed as cell-based, HEK293.
Data set [10] concerns Rattus norvegicus. Kind of data set: Effect on behavioural activity in rat assessed as cocaine-induced lever response at 25 mg/kg, ip pretreated with cocaine for 45 mins by drug-discrimination studies. The format is functional. The note with it: route intraperitoneal.
The subject of data set [11] is Rattus norvegicus. Put plainly: Effect on behavioural activity in rat assessed as cocaine-induced lever response at 25 mg/kg, ip pretreated with cocaine for 60 mins by drug-discrimination studies. The format is functional. The note with it: route intraperitoneal.
Data set [12] concerns the target T2, Sodium-dependent dopamine transporter (Homo sapiens, UniProt Q01959). Put plainly: Displacement of [125I]RTI55 from cloned human DAT expressed in HEK293 cells. The data set is classed as cell-based. (In general: In a radioligand displacement assay an active substance lowers the binding of a labelled ligand.)
Data set [13] has as its system Rattus norvegicus. Kind of data set: Effect on behavioural activity in rat assessed as cocaine-induced lever response at 5 mg/kg, ip pretreated with cocaine for 60 mins by drug-discrimination studies. The data set is classed as functional. The note with it: route intraperitoneal.
Data set [14] deals with T3, Sodium-dependent noradrenaline transporter (Homo sapiens, UniProt P23975). Kind of data set: Inhibition of [3H]norepinephrine reuptake at human NET expressed in HEK293 cells. The data set is classed as cell-based.
T3 sequence (P23975 whole entry): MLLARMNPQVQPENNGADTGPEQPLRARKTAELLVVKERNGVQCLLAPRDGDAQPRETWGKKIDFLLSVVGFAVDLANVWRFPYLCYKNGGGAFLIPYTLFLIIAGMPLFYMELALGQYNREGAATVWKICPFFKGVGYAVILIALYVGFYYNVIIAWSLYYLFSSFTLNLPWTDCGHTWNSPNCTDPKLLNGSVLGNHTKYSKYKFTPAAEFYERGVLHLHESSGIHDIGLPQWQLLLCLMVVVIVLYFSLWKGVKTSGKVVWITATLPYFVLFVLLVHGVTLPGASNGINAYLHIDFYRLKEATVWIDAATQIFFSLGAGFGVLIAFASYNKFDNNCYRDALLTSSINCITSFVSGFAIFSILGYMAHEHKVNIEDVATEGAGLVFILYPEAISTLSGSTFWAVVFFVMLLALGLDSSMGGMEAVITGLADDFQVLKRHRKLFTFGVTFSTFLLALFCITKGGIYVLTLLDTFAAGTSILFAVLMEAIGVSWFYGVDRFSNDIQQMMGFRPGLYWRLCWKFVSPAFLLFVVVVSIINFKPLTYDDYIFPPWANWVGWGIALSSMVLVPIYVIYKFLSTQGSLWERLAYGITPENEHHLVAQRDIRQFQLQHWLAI
Data set [15] has as its system Rattus norvegicus. Put plainly: Effect on behavioural activity in rat assessed as cocaine-induced lever response at 10 mg/kg, ip pretreated with cocaine for 60 mins by drug-discrimination studies. The data set is classed as functional. The note with it: route intraperitoneal.
The subject of data set [16] is Rattus norvegicus. Kind of data set: Toxicity in rat assessed as adverse effects at 50 mg/kg, ip. The format is organism-based. The arrangement: dose 50 mg/kg, route intraperitoneal. Particulars: in vivo.
The target in data set [17] is T3, Sodium-dependent noradrenaline transporter. Put plainly: Displacement of [125I]RTI55 from cloned human NET expressed in HEK293 cells. The data set is classed as cell-based.
The target in data set [18] is T2, Sodium-dependent dopamine transporter. Kind of data set: Inhibition of [3H]dopamine reuptake at human DAT expressed in HEK293 cells. The format is cell-based.
The test system of data set [19] is Rattus norvegicus. Put plainly: Effect on behavioural activity in rat assessed as cocaine-induced lever response at 10 mg/kg, po pretreated with cocaine for 180 mins by drug-discrimination studies. The data set is classed as functional.
Data set [20] relates to Rattus norvegicus. Put plainly: Effect on behavioural activity in po dosed rat assessed as cocaine-induced lever response pretreated with cocaine by drug-discrimination studies. The format is functional.
In data set [21] the test system is Rattus norvegicus. Kind of data set: Effect on behavioural activity in rat assessed as cocaine-induced lever response at 50 mg/kg, po pretreated with cocaine for 90 mins by drug-discrimination studies. The format is functional.
For data set [22], the system named is Rattus norvegicus. Kind of data set: Effect on behavioural activity in rat assessed as cocaine-induced lever response at 10 mg/kg, ip pretreated with cocaine for 75 mins by drug-discrimination studies. The data set is classed as functional. The note with it: route intraperitoneal.
Data set [23] relates to Rattus norvegicus. Kind of data set: Effect on behavioural activity in rat assessed as cocaine-induced lever response at 50 mg/kg, ip pretreated with cocaine for 75 mins by drug-discrimination studies. The data set is classed as functional. Particulars: route intraperitoneal.
Data set [24] relates to Rattus norvegicus. Kind of data set: Effect on behavioural activity in rat assessed as cocaine-induced lever response at 10 mg/kg, po pretreated with cocaine for 90 mins by drug-discrimination studies. The data set is classed as functional.
Data set [25] concerns Rattus norvegicus. Put plainly: Effect on behavioural activity in rat assessed as cocaine-induced lever response at 25 mg/kg, po pretreated with cocaine for 180 mins by drug-discrimination studies. The format is functional.
Data set [26] concerns Rattus norvegicus. Kind of data set: Effect on behavioural activity in rat assessed as cocaine-induced lever response at 100 mg/kg, ip pretreated with cocaine for 75 mins by drug-discrimination studies. The note with it: route intraperitoneal. The format is functional.
Data set [27] concerns Rattus norvegicus. Kind of data set: Effect on behavioural activity in rat assessed as cocaine-induced lever response at 25 mg/kg, po pretreated with cocaine for 360 mins by drug-discrimination studies. The data set is classed as functional.
For data set [28], the system named is Rattus norvegicus. Kind of data set: Effect on behavioural activity in rat assessed as cocaine-induced lever response at 25 mg/kg, ip pretreated with cocaine for 75 mins by drug-discrimination studies. Particulars: route intraperitoneal. The data set is classed as functional.
The subject of data set [29] is Rattus norvegicus. Kind of data set: Effect on behavioural activity in rat assessed as cocaine-induced lever response at 25 mg/kg, po pretreated with cocaine for 90 mins by drug-discrimination studies. The format is functional.
Data set [30] relates to Rattus norvegicus. Put plainly: Effect on behavioural activity in rat assessed as cocaine-induced lever response at 50 mg/kg, po pretreated with cocaine for 360 mins by drug-discrimination studies. The format is functional.
The test system of data set [31] is Rattus norvegicus. Put plainly: Effect on behavioural activity in rat assessed as cocaine-induced lever response at 10 mg/kg, po pretreated with cocaine for 45 mins by drug-discrimination studies. The format is functional.
Data set [32] has as its system Rattus norvegicus. Kind of data set: Effect on behavioural activity in rat assessed as cocaine-induced lever response at 50 mg/kg, po pretreated with cocaine for 45 mins by drug-discrimination studies. The format is functional.
In data set [33] the test system is Rattus norvegicus. Kind of data set: Effect on behavioural activity in rat assessed as cocaine-induced lever response at 25 mg/kg, po pretreated with cocaine for 45 mins by drug-discrimination studies. The format is functional.
The test system of data set [34] is Rattus norvegicus. Put plainly: Effect on behavioural activity in rat assessed as cocaine-induced lever response at 50 mg/kg, po pretreated with cocaine for 180 mins by drug-discrimination studies. The format is functional.

T2 sequence (Q01959 whole entry): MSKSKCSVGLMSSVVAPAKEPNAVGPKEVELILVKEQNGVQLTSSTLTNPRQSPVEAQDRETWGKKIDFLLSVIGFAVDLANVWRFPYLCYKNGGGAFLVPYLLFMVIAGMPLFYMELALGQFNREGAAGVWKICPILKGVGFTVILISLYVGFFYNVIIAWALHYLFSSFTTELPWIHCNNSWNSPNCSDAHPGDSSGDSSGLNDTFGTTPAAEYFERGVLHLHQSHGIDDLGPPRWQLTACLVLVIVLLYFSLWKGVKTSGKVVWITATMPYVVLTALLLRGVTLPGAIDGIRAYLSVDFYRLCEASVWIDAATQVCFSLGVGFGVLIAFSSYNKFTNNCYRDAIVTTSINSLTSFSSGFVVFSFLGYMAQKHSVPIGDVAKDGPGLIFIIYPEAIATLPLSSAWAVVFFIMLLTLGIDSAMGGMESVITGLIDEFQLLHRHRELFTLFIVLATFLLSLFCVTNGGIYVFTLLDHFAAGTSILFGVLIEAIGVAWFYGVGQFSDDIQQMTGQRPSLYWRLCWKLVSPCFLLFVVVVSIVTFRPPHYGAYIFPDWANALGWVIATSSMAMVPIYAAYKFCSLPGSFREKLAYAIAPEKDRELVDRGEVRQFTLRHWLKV

For orientation: IC50 means the point on the concentration scale where inhibition reaches its midpoint. In general, ED50 refers to the dose at which the effect has come halfway, by size or by number of responders. `CC(NC(C)(C)C)C(=O)c1ccc(Cl)c(Cl)c1` (centres undefined): in [1], the “Time to peak locomotor stimulation” value is 270 min. Moreover, the values for the Activity in data set [2], in data set [3] and in data set [5] were 16.7%, 61% and 22.4%, respectively. Also, in [4], the Time was determined as 140 min. Moreover, in data set [6], the IC50 is above 10 µM. The 50% effective dose (ED50) in data set [7] worked out at 26.9 mg/kg.
As a reminder, the Ki is a dissociation constant, usually derived from enzyme kinetics or from competition with a known ligand. A higher Ki goes with lower affinity. As to `CCCCCC(NC(C)(C)C)C(=O)c1cccc(Cl)c1` (centres undefined), in data set [1], the “Time to peak locomotor stimulation” value was found to be 60 min. Further, the Activity in data set [8] is 50.9%; in data set [3], 90%; in data set [10], 1%. The molecule further registered an inhibition constant (Ki) in data set [9] above 10 µM. Moreover, the Time in data set [4] stood at 280 min. Moreover, in data set [7], the ED50 is 12.9 mg/kg.
Consider `CC(C)(C)NC(CCC1CCCCC1)C(=O)c1cccc(Cl)c1` (centres undefined), for which the “Time to peak locomotor stimulation” value in data set [1] amounted to 60 min. Besides, the Activity in [11] was 69.6%; in data set [3], 33%; in data set [13], 0.2%; in data set [15] it was 0.7%; in data set [16], “Toxic”. In addition, the Ki in data set [12] came out at 1.7 µM; in data set [9], 6.2 µM; in data set [17], 3.8 µM. Besides, the concentration for half-maximal inhibition (IC50) in data set [14], in data set [18] and in [6] was above 10 µM in each case. In addition, the Time in data set [4] amounted to 160 min. Also, the 50% effective dose (ED50) in data set [7] was 14.1 mg/kg.
As for `CCCCCCC(NC(C)(C)C)C(=O)c1cccc(Cl)c1` (centres undefined), the Activity was 0% in [19]; 17% in [21]; 94% in [3]; 0% in [22]; 49.9% in data set [23]; 0% in data set [24]. Besides, the Activity in data set [25] is 0%; in [26] it was 67.2%; in data set [27], 0%; in data set [28], 48.5%; in data set [29] it was 0%; in [30], 0%. The Activity in data set [31] turned out to be 0%; in data set [32], 83%; in data set [33] it was 0%; in data set [34] it was 25%. Moreover, the “Time to peak locomotor stimulation” value in data set [1] turned out to be 110 min. The ED50 worked out at 46.9 mg/kg in data set [20] and 5.6 mg/kg in data set [7]. In data set [9], this molecule had an inhibitory constant (Ki) above 10 µM. Moreover, the Time in data set [4] was determined as 130 min.
